According to patent publication US10597388B2, “Pyridazinone herbicides” (FMC CORPORATION, priority 2014, dated 2020):

What was measured:
Assay type in all cases: in vivo
[1] = test system: beggarticks (hairy beggarticks, Bidens pilosa); experiment: Test E greenhouse herbicide test, pre- and postemergence
Summary of the method: (§1)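 Scores (0–100, visual, vs controls) reflect greenhouse growth of 14 to 21 d after treatment. Application was pre-emergence to silt loam or post-emergence at the 1- to 4-leaf stage.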

[2] = test system: dayflower (Virginia (VA) dayflower, Commelina virginica); experiment: as above
Summary of the method: as §1

[3] = test system: field bindweed (Convolvulus arvensis); experiment: as above
Summary of the method: as §1

[4] = test system: johnsongrass (Sorghum halepense); experiment: as above; settings: Preemergence
Summary of the method: as §1

[5] = test system: momingglory (Ipomoea coccinea); experiment: as above; settings: Preemergence
Summary of the method: as §1

[6] = test system: nutsedge, yellow (yellow nutsedge, Cyperus esculentus); experiment: as above; settings: Preemergence
Summary of the method: as §1

[7] = test system: pigweed, palmer (palmer pigweed, Amaranthus palmeri); experiment: as above
Summary of the method: as §1

[8] = test system: ragweed (common ragweed, Ambrosia elatior); experiment: as above
Summary of the method: as §1

[9] = test system: soybean (Glycine max); experiment: as above
Summary of the method: as §1

[10] = test system: waterhemp (common waterhemp, Amaranthus rudis); experiment: as above
Summary of the method: as §1

[11] = test system: waterhemp_RES1 (ALS & Triazine resistant common waterhemp, Amaranthus rudis); experiment: Test E greenhouse herbicide test, postemergence
Summary of the method: (§2)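 Postemergence spray on potted plants, 1–4 leaves, 2–18 cm; greenhouse 14–21 d; visual rating vs controls, 0 (no effect) to 100 (complete control).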

[12] = test system: waterhemp_RES2 (ALS & HPPD resistant common waterhemp, Amaranthus rudis); experiment: Test E greenhouse herbicide test, postemergence
Summary of the method: as §2

[13] = 62 g ai/ha, Postemergence, scale 0 to 100 (0 no effect, 100 complete control)
[14] = 62 g ai/ha, Preemergence, scale 0 to 100 (0 no effect, 100 complete control)
[15] = 125 g ai/ha, Postemergence, scale 0 to 100 (0 no effect, 100 complete control)
[16] = 125 g ai/ha, Preemergence, scale 0 to 100 (0 no effect, 100 complete control)
[17] = 250 g ai/ha, Postemergence, scale 0 to 100 (0 no effect, 100 complete control)
[18] = Postemergence, 31 g ai/ha, visual, scale 0 no effect to 100 complete control
[19] = Preemergence, 31 g ai/ha, scale 0 to 100, 0 no effect, 100 complete control
[20] = Preemergence, 250 g ai/ha, visual, scale 0 no effect to 100 complete control
[21] = 125 g ai/ha, scale 0 to 100 (0 no effect, 100 complete control)
[22] = 31 g ai/ha, scale 0 to 100, 0 no effect, 100 complete control
[23] = 250 g ai/ha, visual, scale 0 no effect to 100 complete control
[24] = 62 g ai/ha, scale 0 to 100 (0 no effect, 100 complete control)
[25] = 31 g ai/ha, visual, scale 0 no effect to 100 complete control
[26] = 250 g ai/ha, scale 0 to 100 (0 no effect, 100 complete control)

CCOC(=O)Oc1c(C)nn(C)c(=O)c1-c1c(C)sc2ccc(C)cc12 [Compound 82]
Plant response rating, Beggarticks [1, 13]: 90 | Plant response rating, Beggarticks [1, 14]: 100 | Plant response rating, Beggarticks [1, 15]: 98 | Plant response rating, Beggarticks [1, 16]: 100 | Plant response rating, Beggarticks [1, 17]: 98 | Plant response rating, Beggarticks [1, 18]: 90 | Plant response rating, Beggarticks [1, 19]: 100 | Plant response rating, Beggarticks [1, 20]: 100 | Plant response rating, Dayflower, VA [2, 13]: 50 | Plant response rating, Dayflower, VA [2, 14]: 5 | Plant response rating, Dayflower, VA [2, 15]: 60 | Plant response rating, Dayflower, VA [2, 16]: 5 | Plant response rating, Dayflower, VA [2, 17]: 65 | Plant response rating, Dayflower, VA [2, 18]: 40 | Plant response rating, Dayflower, VA [2, 19]: 0 | Plant response rating, Dayflower, VA [2, 20]: 35 | Plant response rating, Field Bindweed [3, 13]: 80 | Plant response rating, Field Bindweed [3, 14]: 50 | Plant response rating, Field Bindweed [3, 15]: 95 | Plant response rating, Field Bindweed [3, 16]: 100 | Plant response rating, Field Bindweed [3, 17]: 85 | Plant response rating, Field Bindweed [3, 18]: 85 | Plant response rating, Field Bindweed [3, 19]: 65 | Plant response rating, Field Bindweed [3, 20]: 95 | Plant response rating, Johnsongrass [4, 21]: 35 | Plant response rating, Johnsongrass [4, 22]: 0 | Plant response rating, Johnsongrass [4, 23]: 50 | Plant response rating, Morningglory [5, 24]: 80 | Plant response rating, Morningglory [5, 21]: 90 | Plant response rating, Morningglory [5, 22]: 70 | Plant response rating, Morningglory [5, 23]: 100 | Plant response rating, Nutsedge, Yellow [6, 24]: 10 | Plant response rating, Nutsedge, Yellow [6, 21]: 40 | Plant response rating, Nutsedge, Yellow [6, 22]: 0 | Plant response rating, Nutsedge, Yellow [6, 23]: 65 | Plant response rating, Pigweed, Palmer [7, 13]: 60 | Plant response rating, Pigweed, Palmer [7, 14]: 90 | Plant response rating, Pigweed, Palmer [7, 15]: 75 | Plant response rating, Pigweed, Palmer [7, 16]: 100 | Plant response rating, Pigweed, Palmer [7, 17]: 65 | Plant response rating, Pigweed, Palmer [7, 18]: 50 | Plant response rating, Pigweed, Palmer [7, 19]: 90 | Plant response rating, Pigweed, Palmer [7, 20]: 100 | Plant response rating, Ragweed [8, 13]: 90 | Plant response rating, Ragweed [8, 14]: 80 | Plant response rating, Ragweed [8, 15]: 90 | Plant response rating, Ragweed [8, 16]: 100 | Plant response rating, Ragweed [8, 17]: 90 | Plant response rating, Ragweed [8, 18]: 85 | Plant response rating, Ragweed [8, 19]: 85 | Plant response rating, Ragweed [8, 20]: 100 | Plant response rating, Soybean [9, 14]: 0 | Plant response rating, Soybean [9, 15]: 40 | Plant response rating, Soybean [9, 16]: 0 | Plant response rating, Soybean [9, 17]: 35 | Plant response rating, Soybean [9, 18]: 10 | Plant response rating, Soybean [9, 19]: 0 | Plant response rating, Waterhemp [10, 14]: 90 | Plant response rating, Waterhemp [10, 15]: 85 | Plant response rating, Waterhemp [10, 16]: 100 | Plant response rating, Waterhemp [10, 17]: 90 | Plant response rating, Waterhemp [10, 18]: 70 | Plant response rating, Waterhemp [10, 19]: 85 | Plant response rating, Waterhemp [10, 20]: 100 | Plant response rating, Waterhemp_RES1 [11, 25]: 60 | Plant response rating, Waterhemp_RES1 [11, 21]: 85 | Plant response rating, Waterhemp_RES1 [11, 26]: 95 | Plant response rating, Waterhemp_RES2 [12, 25]: 50 | Plant response rating, Waterhemp_RES2 [12, 21]: 60 | Plant response rating, Waterhemp_RES2 [12, 26]: 60

CCOC(=O)Oc1c(C)nn(C)c(=O)c1-c1c(C)sc2c(C)cc(C)cc12 [Compound 83]
Plant response rating, Beggarticks [1, 13]: 100 | Plant response rating, Beggarticks [1, 14]: 100 | Plant response rating, Beggarticks [1, 15]: 100 | Plant response rating, Beggarticks [1, 16]: 100 | Plant response rating, Beggarticks [1, 17]: 100 | Plant response rating, Beggarticks [1, 18]: 98 | Plant response rating, Beggarticks [1, 19]: 100 | Plant response rating, Beggarticks [1, 20]: 100 | Plant response rating, Dayflower, VA [2, 13]: 60 | Plant response rating, Dayflower, VA [2, 14]: 10 | Plant response rating, Dayflower, VA [2, 15]: 75 | Plant response rating, Dayflower, VA [2, 16]: 25 | Plant response rating, Dayflower, VA [2, 17]: 70 | Plant response rating, Dayflower, VA [2, 18]: 50 | Plant response rating, Dayflower, VA [2, 19]: 0 | Plant response rating, Dayflower, VA [2, 20]: 65 | Plant response rating, Field Bindweed [3, 13]: 70 | Plant response rating, Field Bindweed [3, 14]: 5 | Plant response rating, Field Bindweed [3, 15]: 70 | Plant response rating, Field Bindweed [3, 16]: 35 | Plant response rating, Field Bindweed [3, 17]: 75 | Plant response rating, Field Bindweed [3, 18]: 60 | Plant response rating, Field Bindweed [3, 19]: 0 | Plant response rating, Field Bindweed [3, 20]: 100 | Plant response rating, Johnsongrass [4, 24]: 0 | Plant response rating, Johnsongrass [4, 21]: 0 | Plant response rating, Johnsongrass [4, 22]: 0 | Plant response rating, Johnsongrass [4, 23]: 20 | Plant response rating, Morningglory [5, 24]: 20 | Plant response rating, Morningglory [5, 21]: 95 | Plant response rating, Morningglory [5, 22]: 25 | Plant response rating, Morningglory [5, 23]: 100 | Plant response rating, Nutsedge, Yellow [6, 24]: 65 | Plant response rating, Nutsedge, Yellow [6, 21]: 70 | Plant response rating, Nutsedge, Yellow [6, 22]: 65 | Plant response rating, Nutsedge, Yellow [6, 23]: 75 | Plant response rating, Pigweed, Palmer [7, 13]: 40 | Plant response rating, Pigweed, Palmer [7, 14]: 20 | Plant response rating, Pigweed, Palmer [7, 15]: 50 | Plant response rating, Pigweed, Palmer [7, 16]: 50 | Plant response rating, Pigweed, Palmer [7, 17]: 60 | Plant response rating, Pigweed, Palmer [7, 18]: 40 | Plant response rating, Pigweed, Palmer [7, 19]: 0 | Plant response rating, Pigweed, Palmer [7, 20]: 80 | Plant response rating, Ragweed [8, 13]: 50 | Plant response rating, Ragweed [8, 14]: 75 | Plant response rating, Ragweed [8, 15]: 70 | Plant response rating, Ragweed [8, 16]: 95 | Plant response rating, Ragweed [8, 17]: 75 | Plant response rating, Ragweed [8, 18]: 60 | Plant response rating, Ragweed [8, 19]: 70 | Plant response rating, Ragweed [8, 20]: 98 | Plant response rating, Soybean [9, 14]: 0 | Plant response rating, Soybean [9, 15]: 0 | Plant response rating, Soybean [9, 16]: 0 | Plant response rating, Soybean [9, 17]: 15 | Plant response rating, Soybean [9, 18]: 0 | Plant response rating, Soybean [9, 19]: 0 | Plant response rating, Soybean [9, 20]: 0 | Plant response rating, Waterhemp [10, 14]: 65 | Plant response rating, Waterhemp [10, 15]: 40 | Plant response rating, Waterhemp [10, 16]: 75 | Plant response rating, Waterhemp [10, 17]: 60 | Plant response rating, Waterhemp [10, 18]: 40 | Plant response rating, Waterhemp [10, 19]: 65 | Plant response rating, Waterhemp [10, 20]: 75 | Plant response rating, Waterhemp_RES1 [11, 25]: 70 | Plant response rating, Waterhemp_RES1 [11, 21]: 80 | Plant response rating, Waterhemp_RES1 [11, 26]: 70 | Plant response rating, Waterhemp_RES2 [12, 25]: 30 | Plant response rating, Waterhemp_RES2 [12, 21]: 40 | Plant response rating, Waterhemp_RES2 [12, 26]: 50
